Experimental data: patent publication EP4620959A1, “CYCLIC COMPOUNDS USED AS MULTI-TARGET KINASE INHIBITORS AND PREPARATION METHOD THEREFOR” (Shanghai Institute of Organic Chemistry, Chinese Academy of …, priority 2022, dated 2024)

Columns and labels:
LRRK2 wt = LRRK2 wt (Homo sapiens, UniProt Q5S007); experiment: Kinase activity inhibition assay (ADP-Glo), LRRK2 wt; format: biochemical; conditions: for inhibition at 0.1 µM: read-out: LRRK2 wt inhibition rate at 100 nM, ATP 20 µM, compound at 100 nM; for inhibition at 0.3 µM: read-out: LRRK2 wt inhibition rate @300 nM, ATP 20 µM, compound at 300 nM
Method: (§1) The kinase activity inhibition assay was performed by ICE Bioscience (Beijing) using ADP-Glo and HTRF methods.
(§2) Table 1.1-1 ADP-Glo Buffer
(§3) Table 1.2-1 ADP-Glo Kinase and Substrate Formulation
(§4) SD is the standard error, and AVE is the average value. Table 2-1 LRRK2 Activity Inhibition Test Results

LRRK2 G2019S = LRRK2 G2019S (Homo sapiens, UniProt Q5S007, G2019S); experiment: Kinase activity inhibition assay (ADP-Glo), LRRK2 G2019S; format: biochemical; conditions: for inhibition at 0.1 µM: read-out: LRRK2 G2019S inhibition rate at 100 nM, ATP 100 µM, compound at 100 nM
Method: as §1, §2, §3, §4

FGFR4 = FGFR4 (Homo sapiens, UniProt P22455); experiment: Kinase activity inhibition assay (HTRF), FGFR4; format: biochemical; conditions: ATP 50 µM
Method: as §1
(§5) Table 1.2-2 HTRF Kinase and Substrate Formulation
(§6) • 1) 2×ATP/substrate solution and 2×kinase/metal ion solution were prepared using kinase reaction buffer; • 2) 20 nL (ADP-GLo) or 40 nL (HTRF) of compound dilution was transferred using Echo 655 onto a 384-well assay plate; after centrifugation, 2 µL of 2×kinase and metal ion solution were added to the 384-well assay plate, centrifuged at 1000 rpm for 1 min, and incubated at 25°C for 10 min; • 3) 2 µL of 2×substrate and ATP solution were added to the 384-well assay plate, centrifuged at 1000 rpm for 1 min, and incubated at 25°C for 60 min. • 4) 4 µL of ADP-Glo was transferred to the 384-well assay plate, entrifuged at 1000 rpm for 1 min, and incubated at 25°C for 40 min. • 5) 8 µL of detection solution was transferred to the 384-well assay plate, centrifuged at 1000 rpm for 1 min, and incubated at 25°C for 40 min. • 6) Luminescence signals was read using a multifunctional microplate reader.
as §4

FGFR4 N535K = FGFR4 N535K (Homo sapiens, UniProt P22455, N535K); experiment: Kinase activity inhibition assay (HTRF), FGFR4 N535K; format: biochemical; conditions: ATP 100 µM
Method: as §1, §5, §6, §4

FGFR2 V564I = FGFR2 V564I (Homo sapiens, UniProt P21802, V564I); experiment: Kinase activity inhibition assay (HTRF), FGFR2 V564I; format: biochemical; conditions: ATP 20 µM
Method: as §1, §5, §6, §4

[1] = Oral pharmacokinetic study in rats; conditions: rat, in vivo, 3 mg/kg, male SD rats, oral gavage, dose 3mpk, 1% MC
Method: Drug preparation: 1% MC was added to the compound, ground, and shaken uniformly. Samples were collected at 5 min, 15 min, 30 min, 1 h, 2 h, 4 h, and 8 h post-dose, followed by analysis using liquid chromatography-tandem mass spectrometry (LC-MS/MS). Table 3 PK Data of Selected Compounds

FGFR3 V555M = FGFR3 V555M (Homo sapiens, UniProt P22607, V555M); experiment: Kinase activity inhibition assay (HTRF), FGFR3 V555M; format: biochemical; conditions: ATP 20 µM
Method: as §1, §5, §6, §4

FGFR2 N549H = FGFR2 N549H (Homo sapiens, UniProt P21802, N549H); experiment: Kinase activity inhibition assay (HTRF), FGFR2 N549H; format: biochemical; conditions: ATP 9 µM
Method: as §1, §5, §4

FGFR2 = FGFR2 (Homo sapiens, UniProt P21802); experiment: Kinase activity inhibition assay (HTRF), FGFR2; format: biochemical; conditions: ATP 20 µM
Method: as §1, §5, §6, §4

FLT3 = FLT3 (Homo sapiens, UniProt P36888); experiment: Kinase activity inhibition assay (HTRF), FLT3; format: biochemical; conditions: ATP 2 µM
Method: as §1, §5, §6, §4

FLT4 = FLT4 (Homo sapiens, UniProt P35916); experiment: Kinase activity inhibition assay (HTRF), FLT4; format: biochemical; conditions: ATP 32 µM
Method: as §1, §5, §6, §4

FLT1 = FLT1 (Homo sapiens, UniProt P17948); experiment: Kinase activity inhibition assay (ADP-Glo), FLT1; format: biochemical; conditions: ATP 50 µM
Method: as §1, §2, §3, §6, §4

FGFR2 V564F = FGFR2 V564F (Homo sapiens, UniProt P21802, V564F); experiment: Kinase activity inhibition assay (HTRF), FGFR2 V564F; format: biochemical; conditions: ATP 15 µM
Method: as §1, §5, §6, §4

TYRO3 = TYRO3 (Homo sapiens, UniProt Q06418); experiment: Kinase activity inhibition assay (HTRF), TYRO3; format: biochemical; conditions: ATP 0.5 µM
Method: as §1, §5, §4

FGFR4 V550L = FGFR4 V550L (Homo sapiens, UniProt P22455, V550L); experiment: Kinase activity inhibition assay (ADP-Glo), FGFR4 V550L; format: biochemical; conditions: ATP 20 µM
Method: as §1, §2, §3, §4

KDR = KDR (Homo sapiens, UniProt P35968); experiment: Kinase activity inhibition assay (HTRF), KDR; format: biochemical; conditions: ATP 4 µM
Method: as §1, §5, §4

FGFR3 V555L = FGFR3 V555L (Homo sapiens, UniProt P22607, V555L); experiment: Kinase activity inhibition assay (HTRF), FGFR3 V555L; format: biochemical; conditions: ATP 20 µM
Method: as §1, §5, §6, §4

FGFR1 = FGFR1 (Homo sapiens, UniProt P11362); experiment: Kinase activity inhibition assay (HTRF), FGFR1; format: biochemical; conditions: ATP 40 µM
Method: as §1, §5, §6, §4

RET V804L = RET V804L (Homo sapiens, UniProt P07949, V804L); experiment: Kinase activity inhibition assay (HTRF), RET V804L; format: biochemical; conditions: ATP 5 µM
Method: as §1, §5, §6, §4

FGFR3 = FGFR3 (Homo sapiens, UniProt P22607); experiment: Kinase activity inhibition assay (HTRF), FGFR3; format: biochemical; conditions: ATP 50 µM
Method: as §1, §5, §6, §4

FGFR1 V561M = FGFR1 V561M (Homo sapiens, UniProt P11362, V561M); experiment: Kinase activity inhibition assay (HTRF), FGFR1 V561M; format: biochemical; conditions: ATP 20 µM
Method: as §1, §5, §6, §4

FGFR4 V550M = FGFR4 V550M (Homo sapiens, UniProt P22455, V550M); experiment: Kinase activity inhibition assay (HTRF), FGFR4 V550M; format: biochemical; conditions: ATP 60 µM
Method: as §1, §5, §4

FGFR3 K650M = FGFR3 K650M (Homo sapiens, UniProt P22607, K650M); experiment: Kinase activity inhibition assay (HTRF), FGFR3 K650M; format: biochemical; conditions: ATP 12 µM
Method: as §1, §5, §4

DYRK2 = DYRK2 (Homo sapiens, UniProt Q92630); experiment: Kinase activity inhibition assay (ADP-Glo), DYRK2; format: biochemical; conditions: ATP 5 µM
Method: as §1, §2, §3, §4

LRRK2 wt, sequence (Q5S007 whole entry): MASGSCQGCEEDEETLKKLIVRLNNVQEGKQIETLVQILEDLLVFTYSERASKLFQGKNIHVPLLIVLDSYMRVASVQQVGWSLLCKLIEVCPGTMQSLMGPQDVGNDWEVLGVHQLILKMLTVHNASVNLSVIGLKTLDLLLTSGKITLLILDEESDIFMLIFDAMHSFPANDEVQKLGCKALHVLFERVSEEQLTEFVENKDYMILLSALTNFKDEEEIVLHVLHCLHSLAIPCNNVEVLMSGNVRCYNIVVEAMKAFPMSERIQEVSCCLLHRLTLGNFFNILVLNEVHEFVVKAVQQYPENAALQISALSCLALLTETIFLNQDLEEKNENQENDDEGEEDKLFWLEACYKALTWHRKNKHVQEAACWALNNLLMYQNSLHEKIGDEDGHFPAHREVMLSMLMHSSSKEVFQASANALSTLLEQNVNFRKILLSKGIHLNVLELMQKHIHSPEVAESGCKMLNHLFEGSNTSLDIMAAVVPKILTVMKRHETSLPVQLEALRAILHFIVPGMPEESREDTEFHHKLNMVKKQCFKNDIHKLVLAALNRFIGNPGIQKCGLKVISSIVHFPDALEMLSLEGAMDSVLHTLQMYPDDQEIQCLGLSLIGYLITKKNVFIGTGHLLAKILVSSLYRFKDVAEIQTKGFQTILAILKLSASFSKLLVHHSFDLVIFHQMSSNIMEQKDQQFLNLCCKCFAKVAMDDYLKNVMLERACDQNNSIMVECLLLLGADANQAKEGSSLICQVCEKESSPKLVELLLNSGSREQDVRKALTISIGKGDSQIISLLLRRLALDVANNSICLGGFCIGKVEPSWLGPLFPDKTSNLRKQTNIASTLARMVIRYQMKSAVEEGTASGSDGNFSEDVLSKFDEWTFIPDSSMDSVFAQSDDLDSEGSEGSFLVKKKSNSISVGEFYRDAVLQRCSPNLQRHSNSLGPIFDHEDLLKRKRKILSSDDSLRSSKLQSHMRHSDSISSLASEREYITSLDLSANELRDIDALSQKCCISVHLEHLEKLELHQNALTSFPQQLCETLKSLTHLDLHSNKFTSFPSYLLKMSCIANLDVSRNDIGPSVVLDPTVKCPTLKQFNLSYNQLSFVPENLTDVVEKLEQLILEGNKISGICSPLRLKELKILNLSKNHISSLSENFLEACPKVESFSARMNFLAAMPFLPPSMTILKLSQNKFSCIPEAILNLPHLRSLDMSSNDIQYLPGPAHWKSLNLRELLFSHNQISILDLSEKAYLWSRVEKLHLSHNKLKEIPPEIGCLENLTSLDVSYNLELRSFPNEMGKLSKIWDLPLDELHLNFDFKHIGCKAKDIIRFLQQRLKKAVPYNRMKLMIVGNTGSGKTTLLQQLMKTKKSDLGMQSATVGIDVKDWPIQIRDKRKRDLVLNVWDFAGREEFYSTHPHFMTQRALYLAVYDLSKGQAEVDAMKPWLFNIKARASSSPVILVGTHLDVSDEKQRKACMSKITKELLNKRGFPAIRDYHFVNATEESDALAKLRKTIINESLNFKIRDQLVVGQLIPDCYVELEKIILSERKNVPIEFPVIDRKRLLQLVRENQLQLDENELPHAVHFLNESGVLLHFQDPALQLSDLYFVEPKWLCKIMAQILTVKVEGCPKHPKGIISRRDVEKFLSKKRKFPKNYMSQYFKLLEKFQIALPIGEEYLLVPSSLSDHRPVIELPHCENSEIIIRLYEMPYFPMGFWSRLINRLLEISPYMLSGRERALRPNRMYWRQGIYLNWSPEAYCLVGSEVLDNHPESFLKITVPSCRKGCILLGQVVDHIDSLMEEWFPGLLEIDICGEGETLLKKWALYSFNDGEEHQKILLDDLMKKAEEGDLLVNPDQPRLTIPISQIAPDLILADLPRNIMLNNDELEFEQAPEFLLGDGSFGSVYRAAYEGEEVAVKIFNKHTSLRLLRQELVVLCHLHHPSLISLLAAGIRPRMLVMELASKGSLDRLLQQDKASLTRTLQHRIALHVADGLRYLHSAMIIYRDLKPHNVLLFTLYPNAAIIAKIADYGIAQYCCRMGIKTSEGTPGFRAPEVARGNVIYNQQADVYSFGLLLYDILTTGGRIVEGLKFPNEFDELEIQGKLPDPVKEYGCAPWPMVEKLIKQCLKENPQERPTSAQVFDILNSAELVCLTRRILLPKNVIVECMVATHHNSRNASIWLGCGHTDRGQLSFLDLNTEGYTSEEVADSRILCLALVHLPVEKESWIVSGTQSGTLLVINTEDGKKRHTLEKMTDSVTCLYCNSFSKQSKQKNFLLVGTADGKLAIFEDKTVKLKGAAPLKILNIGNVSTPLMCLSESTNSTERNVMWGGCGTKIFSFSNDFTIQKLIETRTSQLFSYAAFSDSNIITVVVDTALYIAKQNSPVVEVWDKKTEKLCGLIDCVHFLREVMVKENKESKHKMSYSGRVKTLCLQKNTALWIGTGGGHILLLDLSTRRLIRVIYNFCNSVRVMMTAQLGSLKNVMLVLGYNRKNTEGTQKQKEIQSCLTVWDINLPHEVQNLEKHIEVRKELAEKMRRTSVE
LRRK2 G2019S, sequence (Q5S007 whole entry G2019S): as the sequence (Q5S007 whole entry) above, with G2019S counted along it
FGFR4, sequence (P22455 22-802): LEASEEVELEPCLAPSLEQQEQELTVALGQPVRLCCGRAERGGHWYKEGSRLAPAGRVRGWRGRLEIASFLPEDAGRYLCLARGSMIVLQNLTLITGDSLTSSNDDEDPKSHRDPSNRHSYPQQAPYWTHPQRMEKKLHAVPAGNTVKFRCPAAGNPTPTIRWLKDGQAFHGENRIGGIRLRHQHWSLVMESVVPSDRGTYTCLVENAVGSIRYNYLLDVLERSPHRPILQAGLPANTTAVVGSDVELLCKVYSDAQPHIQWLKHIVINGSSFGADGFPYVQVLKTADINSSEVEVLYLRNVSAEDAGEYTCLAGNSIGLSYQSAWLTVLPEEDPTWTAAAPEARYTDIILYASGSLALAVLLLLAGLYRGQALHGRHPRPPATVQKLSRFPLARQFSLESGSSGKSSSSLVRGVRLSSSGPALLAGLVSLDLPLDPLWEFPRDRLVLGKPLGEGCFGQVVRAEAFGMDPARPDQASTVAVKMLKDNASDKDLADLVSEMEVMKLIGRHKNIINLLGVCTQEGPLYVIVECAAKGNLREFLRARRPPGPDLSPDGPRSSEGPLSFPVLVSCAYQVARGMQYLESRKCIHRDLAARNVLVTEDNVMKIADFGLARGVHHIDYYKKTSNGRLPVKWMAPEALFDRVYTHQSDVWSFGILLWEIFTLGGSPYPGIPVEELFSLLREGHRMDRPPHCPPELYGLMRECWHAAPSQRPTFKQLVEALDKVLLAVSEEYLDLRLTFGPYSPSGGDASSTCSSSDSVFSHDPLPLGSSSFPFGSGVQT
FGFR4 N535K, sequence (P22455 22-802 N535K): as the sequence (P22455 22-802) above, with N514K counted along it
RET V804L, sequence (P07949 29-1114 V804L): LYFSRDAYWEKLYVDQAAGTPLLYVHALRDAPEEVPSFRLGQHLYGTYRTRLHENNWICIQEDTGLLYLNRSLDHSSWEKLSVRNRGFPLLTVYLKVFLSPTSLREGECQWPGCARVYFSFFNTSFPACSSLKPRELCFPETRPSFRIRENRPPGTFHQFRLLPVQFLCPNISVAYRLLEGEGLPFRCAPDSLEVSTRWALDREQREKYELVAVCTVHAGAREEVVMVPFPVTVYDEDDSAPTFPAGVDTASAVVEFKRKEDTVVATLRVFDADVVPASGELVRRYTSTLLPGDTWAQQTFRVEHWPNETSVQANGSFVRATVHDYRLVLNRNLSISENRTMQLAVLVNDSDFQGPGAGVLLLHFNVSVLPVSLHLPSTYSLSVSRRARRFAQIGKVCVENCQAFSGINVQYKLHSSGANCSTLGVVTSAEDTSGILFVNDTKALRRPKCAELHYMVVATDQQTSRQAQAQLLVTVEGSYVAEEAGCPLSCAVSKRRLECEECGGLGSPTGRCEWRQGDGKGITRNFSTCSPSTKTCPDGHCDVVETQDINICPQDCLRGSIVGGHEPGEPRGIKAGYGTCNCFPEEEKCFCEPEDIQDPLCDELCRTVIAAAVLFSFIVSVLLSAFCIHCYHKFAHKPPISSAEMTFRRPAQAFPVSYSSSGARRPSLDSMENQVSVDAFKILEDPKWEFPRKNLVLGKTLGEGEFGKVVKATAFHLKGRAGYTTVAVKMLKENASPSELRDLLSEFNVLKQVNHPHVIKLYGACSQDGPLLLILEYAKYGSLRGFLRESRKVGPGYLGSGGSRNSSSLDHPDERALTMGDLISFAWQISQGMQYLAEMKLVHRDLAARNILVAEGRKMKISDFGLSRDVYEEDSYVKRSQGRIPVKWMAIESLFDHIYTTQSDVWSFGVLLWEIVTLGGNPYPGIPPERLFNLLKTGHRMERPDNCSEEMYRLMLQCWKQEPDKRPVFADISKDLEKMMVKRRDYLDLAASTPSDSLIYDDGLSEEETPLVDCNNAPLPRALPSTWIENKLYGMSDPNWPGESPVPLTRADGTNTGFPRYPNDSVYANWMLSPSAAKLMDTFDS
FGFR4 V550M, sequence (P22455 22-802 V550M): as the sequence (P22455 22-802) above, with V529M counted along it
DYRK2, sequence (Q92630 whole entry): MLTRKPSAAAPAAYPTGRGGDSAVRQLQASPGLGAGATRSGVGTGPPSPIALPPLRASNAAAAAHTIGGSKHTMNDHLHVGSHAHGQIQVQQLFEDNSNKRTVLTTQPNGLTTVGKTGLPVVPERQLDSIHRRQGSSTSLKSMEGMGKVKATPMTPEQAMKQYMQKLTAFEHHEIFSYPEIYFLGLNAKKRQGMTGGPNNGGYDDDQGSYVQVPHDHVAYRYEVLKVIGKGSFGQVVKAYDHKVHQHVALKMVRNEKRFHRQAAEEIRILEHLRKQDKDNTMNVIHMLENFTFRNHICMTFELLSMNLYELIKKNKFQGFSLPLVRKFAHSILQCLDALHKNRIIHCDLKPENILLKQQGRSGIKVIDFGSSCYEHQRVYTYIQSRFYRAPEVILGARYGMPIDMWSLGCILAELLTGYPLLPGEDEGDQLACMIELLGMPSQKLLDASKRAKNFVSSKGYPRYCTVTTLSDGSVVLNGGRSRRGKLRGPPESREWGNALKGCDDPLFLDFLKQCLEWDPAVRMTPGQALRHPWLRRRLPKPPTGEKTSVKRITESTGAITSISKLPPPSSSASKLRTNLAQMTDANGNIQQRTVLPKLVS

CN1CCCNc2nc(ncc2C(F)(F)F)Nc2cn(nc2C2CC2)C2CC2C1=O (racemic) [Example T-10, (1^1R,1^2S,2^1R,E)-2^3-Cyclopropyl-9-methyl-4^5-(trifluoromethyl)-2^1H-3,5,9-triaza-4(2,4)-pyrimidina-2(1,4)-pyrazola-1(1,2)-cyclopropacyclodecan-10-one]
inhibition at 0.1 µM (LRRK2 wt): 94%
inhibition at 0.1 µM (LRRK2 G2019S): 92%

O=C1NCCCNc2nc(ncc2C(F)(F)F)Nc2cn(nc2C2CC2)C2CC12 (racemic) [Example T-11, (1^1R,1^2R,2^1S,E)-2^3-Cyclopropyl-4^5-(trifluoromethyl)-2^1H-3,5,9-triaza-4(2,4)-pyrimidina-2(1,4)-pyrazola-1(1,2)-cyclopropacyclodecan-10-one]
inhibition at 0.1 µM (LRRK2 wt): 89%
inhibition at 0.1 µM (LRRK2 G2019S): 90%

C=CC(=O)N[C@H]1CCOC[C@H]1Nc1ncc2cc(-c3c(Cl)c(OC)cc(OC)c3Cl)ccc2n1 [BLU554]
IC50 (FGFR4): 2.98 nM
IC50 (FGFR4 N535K): 42.5 nM

CNc1nc(Nc2cn(C(C)(C)C#N)nc2C)ncc1C(F)(F)F [DNL-201]
IC50 (LRRK2 wt; ATP 20 µM): 1.27 nM
IC50 (LRRK2 G2019S; ATP 100 µM): 2.88 nM

Cc1nn2cc1Nc1ncc(C(F)(F)F)c(n1)NCCCNC(=O)C2(C)C [Example T-1, (E)-3^3,4,4-Trimethyl-15-(trifluoromethyl)-3^1H-2,6,10-triaza-1(2,4)-pyrimidina-3(4,1)-pyrazolacyclodecan-5-one]
IC50 (FGFR2 V564I): 76.1 nM
Cmax [1]: 754 ng/mL
Tmax [1]: 1 h
half-life [1]: 2.3 h
AUC(0-t) at 8 h ([1]; read-out: AUC0-8): 3820 ng·h/mL
IC50 (FGFR3 V555M): 12.7 nM
IC50 (FGFR2 N549H): 16.4 nM
IC50 (FGFR2): 21.8 nM
IC50 (FLT3): 370 nM
IC50 (FLT4): 65.1 nM
IC50 (FLT1): 15.2 nM
IC50 (FGFR2 V564F): 8.22 nM
IC50 (TYRO3): 278 nM
IC50 (FGFR4 V550L): 67.4 nM
IC50 (KDR): 18.9 nM
IC50 (FGFR3 V555L): 5.09 nM
IC50 (FGFR1): 135 nM
IC50 (RET V804L): 175 nM
IC50 (FGFR3): 50.2 nM
IC50 (FGFR1 V561M): 26.7 nM
IC50 (FGFR4 V550M): 126 nM
IC50 (FGFR4): 32.9 nM
IC50 (FGFR3 K650M): 9.1 nM
IC50 (FGFR4 N535K): 609 nM
IC50 (DYRK2): 248 nM

Cc1nn2cc1Nc1ncc3c(Cl)cn(c3n1)CCCNC(=O)C2(C)C [Example T-6, (E)-1^5-Chloro-3^3,4,4-trimethyl-1^7H,3^1H-2,6-diaza-1(2,7)-pyrrolo[2,3-d]pyrimidine-3(4,1)-pyrazolacyclononan-5-one]
inhibition at 0.1 µM (LRRK2 wt): 92%
inhibition at 0.1 µM (LRRK2 G2019S): 88%

Cc1nn2cc1Nc1ncc3c(Cl)cn(c3n1)CCCN(C)C(=O)C2(C)C [Example T-7, (E)-1^5-Chloro-3^3,4,4,6-tetramethyl-1^7H,3^1H-2,6-diaza-1(2,7)-pyrrolo[2,3-d]pyrimidine-3(4,1)-pyrazolacyclononan-5-one]
inhibition at 0.3 µM (LRRK2 wt): 7%
inhibition at 0.1 µM (LRRK2 G2019S): 4.3%

Cc1nn2cc1Nc1ncc3c(Cl)nn(c3n1)CCCNC(=O)C2(C)C [Example T-8, (E)-1^3-Chloro-3^3,4,4-trimethyl-1^1H,3^1H-2,6-diaza-1(6,1)pyrazolo[3,4-d]pyrimidine-3(4,1)-pyrazolacyclononan-5-one]
inhibition at 0.1 µM (LRRK2 wt): 64%
inhibition at 0.1 µM (LRRK2 G2019S): 52%

Cc1nn2cc1Nc1ncc(C(F)(F)F)c(n1)NCCNC(=O)C2(C)C [Example T-12, (E)-3^3,4,4-Trimethyl-1^5-(trifluoromethyl)-3^1H-2,6,9-triaza-1(2,4)-pyrimidina-3(4,1)-pyrazolacyclononan-5-one]
inhibition at 0.1 µM (LRRK2 wt): 5.7%
inhibition at 0.3 µM (LRRK2 G2019S; read-out: LRRK2 G2019S inhibition rate @300 nM, ATP 100 µM, compound at 300 nM): 0.34%

Cc1nn2cc1Nc1ncc(C(F)(F)F)c(n1)NCCCCNC(=O)C2(C)C [Example T-13, (E)-3^3,4,4-Trimethyl-1^5-(trifluoromethyl)-3^1H-2,6,11-triaza-1(2,4)-pyrimidina-3(4,1)-pyrazolacycloundecan-5-one]
inhibition at 0.1 µM (LRRK2 wt): 96%
inhibition at 0.1 µM (LRRK2 G2019S): 92%

Cc1nn2cc1Nc1ncc(C(F)(F)F)c(n1)NCCCNC(=O)C2 [Example T-14, (E)-3^3-Methyl-1^5-(trifluoromethyl)-3^1H-2,6,10-triaza-1(2,4)-pyrimidina-3(4,1)-pyrazolacyclodecan-5-one]
inhibition at 0.1 µM (LRRK2 wt): 87%
inhibition at 0.1 µM (LRRK2 G2019S): 84%

Cc1nn2cc1Nc1ncc(C(F)(F)F)c(n1)NCCNC(=O)C2 [Example T-15, (E)-3^3-Methyl-1^5-(trifluoromethyl)-3^1H-2,6,9-triaza-1(2,4)-pyrimidina-3(4,1)-pyrazolacyclononan-5-one]
inhibition at 0.3 µM (LRRK2 wt): 5%
inhibition at 0.1 µM (LRRK2 G2019S): -9.6%

Cc1nn2cc1Nc1ncc(C(F)(F)F)c(n1)NC(C)(C)CCNC(=O)C2(C)C [Example T-45, (E)-3^3,4,4,9,9-Pentamethyl-1^5-(trifluoromethyl)-3^1H-2,6,10-triaza-1(2,4)-pyrimidina-3(4,1)-pyrazolacyclodecan-5-one]
inhibition at 0.1 µM (LRRK2 wt): -1.97%

Cc1nn2cc1Nc1ncc(C(F)(F)F)c(n1)NC(C)CCNC(=O)C2(C)C (stereo not shown) [Example T-46, (E)-3^3,4,4,9-Tetramethyl-1^5-(trifluoromethyl)-3^1H-2,6,10-triaza-1(2,4)-pyrimidina-3(4,1)-pyrazolacyclodecan-5-one]
inhibition at 0.1 µM (LRRK2 wt): 95.1%
